Values after ≈ are worked out from the molar mass of the structure shown. Read-outs that look alike come from different tables or passages of the source. Where a SMILES comes first, the peptide text is derived from it. Where no end group is shown, it is not given here.
Assays:
[1] = tested on: Burkholderia cenocepacia (CEP0511 Gvar3b); settings: CLSI microdilution, MHB, 37 °C, 20h, OD read-out; at least triplicate
Bacillus subtilis (2597) = settings: 2597, 20 h
Red blood cells = assay: Haemolytic activity; type: cell-based; settings: human red blood cells in PBS, 30 min or 3h, 37°C; at 45 μg/mL (PACAP38) or 37 μg/mL (PACAP(9–38)); absorbance 545 nm; 3 independent experiments in triplicate
Procedure: All experimental procedures were performed in accordance with regulations and ethical guidelines and approved by the institutional committee of the Institut National de la Recherche Scientifique-Institut Armand-Frappier. Blood from healthy human volunteers was collected into sodium citrate-buffered vacutainers. Blood donations were obtained from informed and consenting individuals according to institutionally approved procedures. Red blood cells were pelleted (700 x g; 10 min), washed three times with 9 volumes of PBS by centrifugation (700 x g; 10 min), and then resuspended in PBS. […] PBS-incubated red blood cells were considered as negative control and maximum lysis of erythrocytes was obtained by incubating the cells with 0.1% (v/v) Triton X-100. At the end of the incubation period, cells were pelleted (700 x g, 10 min) and 100 μL of each supernatant was used to evaluate the release of hemoglobin by measuring the absorbance at 545 nm. Results were obtained from 3 independent experiments performed in triplicate.

[2] = tested on: Pseudomonas fluorescens (MF37); settings: 20 h
[3] = tested on: Bacillus amyloliquefaciens (LMG22478); settings: LMG22478, 20 h
[4] = tested on: Escherichia coli (O157 :H7); settings: CLSI microdilution, MHB, 37 °C, 20h, OD read-out; at least triplicate
[5] = tested on: Actinobacillus pleuropneumoniae (4074); settings: 20 h
Bacillus subtilis (PY79) = settings: PY79, 20 h
[6] = tested on: Bacillus circulans (LSPQ3543); settings: 20 h
[7] = tested on: Bacillus cereus (ATCC11778); settings: ATCC11778, 20 h
[8] = tested on: Staphylococcus aureus (Newman); settings: 20 h
[9] = tested on: Staphylococcus aureus (ATCC6538#P); settings: ATCC6538, 20 h
Escherichia coli (JM109) = assay: MIC, CLSI microdilution; type: cell-based; settings: MHB, 37 °C, 20h, OD read-out, at least triplicate
[10] = tested on: Burkholderia cenocepacia (LMG19240); settings: CLSI microdilution, MHB, 37 °C, 20h, OD read-out; at least triplicate
[11] = tested on: Pseudomonas aeruginosa (PA14); settings: PA14, 20 h
[12] = tested on: Escherichia coli ATCC25922; settings: ATCC25922, 20 h
[13] = tested on: Burkholderia cenocepacia (J2315); settings: 20 h
[14] = tested on: Pseudomonas putida (KT2440); settings: 20 h
[15] = tested on: Burkholderia cenocepacia (LMG18829); settings: LMG18829, 20 h
[16] = tested on: Burkholderia cenocepacia (K56-2); settings: 20 h
Bacillus velezensis = settings: 20 h
[17] = tested on: Serratia marcescens (ATCC14756); settings: ATCC14756, 20 h
[18] = tested on: Burkholderia thailendensis (ATCC700388); settings: CLSI microdilution, MHB, 37 °C, 20h, OD read-out; at least triplicate
[19] = tested on: Pseudomonas aeruginosa (ATCC33350-Sero-2); settings: ATCC33350, 20 h
[20] = tested on: various bacterial strains; settings: CLSI microdilution
human VPAC1 receptor = molecular target: T1, human VPAC1 receptor (Homo sapiens, UniProt P32241); assay: Radioligand binding assay, 125I-Ac-PACAP27
T1 construct: expressed in transfected cells
Procedure: (§1) Chinese hamster ovary (CHO) cells stably and individually expressing human receptor PAC1, VPAC1 or VPAC2 were grown in Ham’s F12 medium supplemented with 10% of fetal bovine serum (FBS), 2 mM L-glutamine, 100 UI/mL of penicillin and streptomycin (P/S) and 400 μg/mL of G418. The cell line was maintained at 37 °C in a humidified atmosphere of 5% CO2 and passages were performed by trypsinization when cells reached about 80% confluence.
(§2) Acetylated PACAP27 was radioiodinated using the chloramine-T oxidation technique and purified on a Sep-Pak C18 cartridge (Waters, Milford, MA, USA). Binding assays were performed using CHO cells stably transfected with the human PAC1, VPAC1 or VPAC2 receptor isoform. Cells were seeded at a density of 150,000 cells/well in 24-well plates. The next day, cells were washed with binding buffer (0.1% BSA, 25 mM Tris–HCl, 25 mM MgCl2, pH 7.4) for 10 min at room temperature. The solution was replaced with a fresh solution containing 0.05 nM of ^125I-Ac-PACAP27 and increasing concentrations of peptide (10^−14 to 10^-5M). After 2h of incubation at room temperature, cells were washed twice with the binding buffer and then lysed with sodium hydroxide (0.1 M). Cell-bound radioactivity was quantified using a γ-counter. Results were expressed as percentage of specific binding of ^125I-Ac-PACAP27.

human VPAC2 receptor = molecular target: T2, human VPAC2 receptor (Homo sapiens, UniProt P41587); assay: Radioligand binding assay, 125I-Ac-PACAP27; settings: CHO cells expressing human VPAC2, 0.05 nM 125I-Ac-PACAP27, 2h, room temperature
T2 construct: expressed in transfected cells
Procedure: as §1, §2

human PAC1 receptor = molecular target: T3, human PAC1 receptor (Homo sapiens, UniProt P41586); assay: Radioligand binding assay, 125I-Ac-PACAP27
T3 construct: expressed in transfected cells

CHO-K1 = settings: various eukaryotic cells including CHO-K1; cited from earlier work
Source text: This peptide, well known for its pleiotropic activities in human, mediates its biological activities through the activation of three G protein-coupled receptors, named PAC1, VPAC1, and VPAC2[8]. […] The ...

T1 sequence (P32241 31-457): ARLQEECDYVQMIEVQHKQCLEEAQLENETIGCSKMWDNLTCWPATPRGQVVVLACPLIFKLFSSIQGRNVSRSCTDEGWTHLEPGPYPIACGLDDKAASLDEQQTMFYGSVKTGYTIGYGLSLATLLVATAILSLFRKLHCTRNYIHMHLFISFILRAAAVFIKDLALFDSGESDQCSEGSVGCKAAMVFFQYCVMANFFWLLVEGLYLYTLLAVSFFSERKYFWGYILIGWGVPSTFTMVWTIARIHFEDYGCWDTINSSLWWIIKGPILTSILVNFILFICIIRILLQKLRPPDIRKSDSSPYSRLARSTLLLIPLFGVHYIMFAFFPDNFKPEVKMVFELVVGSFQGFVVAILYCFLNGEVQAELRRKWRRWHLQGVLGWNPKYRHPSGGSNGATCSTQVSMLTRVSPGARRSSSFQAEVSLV
T2 sequence (P41587 24-438): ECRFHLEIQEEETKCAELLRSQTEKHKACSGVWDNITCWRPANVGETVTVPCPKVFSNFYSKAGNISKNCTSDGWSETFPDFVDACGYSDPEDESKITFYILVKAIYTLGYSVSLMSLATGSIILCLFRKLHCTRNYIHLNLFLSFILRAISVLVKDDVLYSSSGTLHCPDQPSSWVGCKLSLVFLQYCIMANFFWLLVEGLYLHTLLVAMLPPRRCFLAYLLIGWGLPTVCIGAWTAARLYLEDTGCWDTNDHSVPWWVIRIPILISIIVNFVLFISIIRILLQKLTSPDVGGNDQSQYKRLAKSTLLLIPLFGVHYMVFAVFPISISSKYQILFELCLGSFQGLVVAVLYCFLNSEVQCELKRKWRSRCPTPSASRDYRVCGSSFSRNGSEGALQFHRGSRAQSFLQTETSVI
T3 sequence (P41586 21-468): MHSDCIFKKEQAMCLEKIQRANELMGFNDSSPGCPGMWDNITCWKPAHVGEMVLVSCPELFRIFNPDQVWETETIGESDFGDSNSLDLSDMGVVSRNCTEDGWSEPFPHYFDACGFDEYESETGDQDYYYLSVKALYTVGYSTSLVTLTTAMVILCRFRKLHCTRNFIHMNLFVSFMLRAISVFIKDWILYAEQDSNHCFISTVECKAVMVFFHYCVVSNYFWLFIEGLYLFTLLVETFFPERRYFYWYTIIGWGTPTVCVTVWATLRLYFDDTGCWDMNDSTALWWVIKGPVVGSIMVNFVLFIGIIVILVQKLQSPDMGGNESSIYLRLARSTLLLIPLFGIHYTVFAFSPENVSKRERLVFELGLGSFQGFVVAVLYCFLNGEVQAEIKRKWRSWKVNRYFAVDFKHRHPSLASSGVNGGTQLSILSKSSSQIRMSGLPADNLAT

Molecule | Haemolytic activity (Red blood cells) | MIC, Pseudomonas fluorescens (MF37) [2] | MIC, Bacillus amyloliquefaciens [3] | MIC, Actinobacillus pleuropneumoniae [5] | MIC, Bacillus subtilis (PY79) (Bacillus subtilis (PY79)) | MIC, Bacillus circulans (LSPQ3543) [6] | MIC, Bacillus cereus (ATCC11778) [7] | MIC, Staphylococcus aureus (Newman) [8] | MIC, Staphylococcus aureus (ATCC6538#P) [9] | MIC, Escherichia coli (JM109) (Escherichia coli (JM109)) | MIC, Pseudomonas aeruginosa (PA14) [11] | MIC, Burkholderia cenocepacia (J2315) [13] | MIC, Pseudomonas putida (KT2440) [14] | MIC, Bacillus velezensis (Bacillus velezensis) | MIC, Serratia marcescens (ATCC14756) [17] | MIC, Burkholderia thailendensis (ATCC700388) [18] | further results
CC[C@H](C)[C@H](NC(=O)CNC(=O)[C@H](CC(=O)O)NC(=O)[C@H](CO)NC(=O)[C@@H](N)Cc1cnc[nH]1)C(=O)N[C@@H](Cc1ccccc1)C(=O)N[C@H](C(=O)N[C@@H](CC(=O)O)C(=O)N[C@@H](CO)C(=O)N[C@@H](Cc1ccc(O)cc1)C(=O)N[C@@H](CO)C(=O)N[C@@H](CCCNC(=N)N)C(=O)N[C@@H](Cc1ccc(O)cc1)C(=O)N[C@@H](CCCNC(=N)N)C(=O)N[C@@H](CCCCN)C(=O)N[C@@H](CCC(N)=O)C(=O)N[C@@H](CCSC)C(=O)N[C@@H](C)C(=O)N[C@H](C(=O)N[C@@H](CCCCN)C(=O)N[C@@H](CCCCN)C(=O)N[C@@H](Cc1ccc(O)cc1)C(=O)N[C@@H](CC(C)C)C(=O)N[C@@H](C)C(=O)N[C@@H](C)C(=O)N[C@H](C(=O)N[C@@H](CC(C)C)C(=O)NCC(=O)N[C@@H](CCCCN)C(=O)N[C@@H](CCCNC(=N)N)C(=O)N[C@@H](Cc1ccc(O)cc1)C(=O)N[C@@H](CCCCN)C(=O)N[C@@H](CCC(N)=O)C(=O)N[C@@H](CCCNC(=N)N)C(=O)N[C@H](C(=O)N[C@@H](CCCCN)C(=O)N[C@@H](CC(N)=O)C(=O)N[C@@H](CCCCN)C(N)=O)C(C)C)C(C)C)C(C)C)[C@@H](C)O [compound 1, PACAP38] | do not exert a very significant haemolytic activity | >200 µg/mL | 42 µg/mL (≈ 9.26 µM) | 7.5 µg/mL (≈ 1.65 µM) | 28 µg/mL (≈ 6.18 µM) | 94 µg/mL (≈ 20.7 µM) | >200 µg/mL | >200 µg/mL | >200 µg/mL | >200 µg/mL | >200 µg/mL | 10 µg/mL (≈ 2.21 µM) | 113 µg/mL (≈ 24.9 µM) | 76 µg/mL (≈ 16.8 µM) | >200 µg/mL | >200 µg/mL | MIC, Burkholderia cenocepacia (CEP0511 Gvar3b) [1]: >200 µg/mL; MIC, Bacillus subtilis (2597) (Bacillus subtilis (2597)): >200 µg/mL; MIC, Escherichia coli (O157 :H7) [4]: >200 µg/mL; MIC, Burkholderia cenocepacia (LMG19240) [10]: >200 µg/mL; MIC, Escherichia coli ATCC25922 [12]: >200 µg/mL; MIC, Burkholderia cenocepacia (LMG18829) [15]: >200 µg/mL; MIC, Burkholderia cenocepacia (K56-2) [16]: >200 µg/mL; MIC, Pseudomonas aeruginosa (ATCC33350-Sero-2) [19]: >200 µg/mL
CC[C@H](C)[C@H](NC(=O)CNC(=O)[C@H](CC(=O)O)NC(=O)[C@H](CO)NC(=O)[C@@H](N)Cc1c[nH]cn1)C(=O)N1Cc2ccccc2C[C@H]1C(=O)N[C@H](C(=O)N[C@@H](CC(=O)O)C(=O)N[C@@H](CO)C(=O)N[C@@H](Cc1ccc(O)cc1)C(=O)N[C@@H](CO)C(=O)N[C@@H](CCCNC(=N)N)C(=O)N[C@@H](Cc1ccc(O)cc1)C(=O)N[C@@H](CCCNC(=N)N)C(=O)N[C@@H](CCCCN)C(=O)N[C@@H](CCC(N)=O)C(=O)N[C@@H](CCSC)C(=O)N[C@@H](C)C(=O)N[C@H](C(=O)N[C@@H](CCCCN)C(=O)N[C@@H](CCCCN)C(=O)N[C@@H](Cc1ccc(O)cc1)C(=O)N[C@@H](CC(C)C)C(=O)N[C@@H](C)C(=O)N[C@@H](C)C(=O)N[C@H](C(=O)N[C@@H](CC(C)C)C(N)=O)C(C)C)C(C)C)[C@@H](C)O [compound 8, [Tic^6]PACAP27] | – | >160 µg/mL | >160 µg/mL | >160 µg/mL | >160 µg/mL | >160 µg/mL | >160 µg/mL | >160 µg/mL | >160 µg/mL | >160 µg/mL | >160 µg/mL | >160 µg/mL | >160 µg/mL | >160 µg/mL | >160 µg/mL | >160 µg/mL | MIC (ability to reduce bacterial growth, tested strains) [20]: > 160 µg/mL
CSCC[C@H](NC(=O)[C@H](CCC(N)=O)NC(=O)[C@H](CCCCN)NC(=O)[C@H](CCCN=C(N)N)NC(=O)[C@H](Cc1ccc(O)cc1)NC(=O)[C@H](CCCN=C(N)N)NC(=O)[C@H](CO)NC(=O)[C@H](Cc1ccc(O)cc1)NC(=O)[C@@H](N)CO)C(=O)N[C@@H](C)C(=O)N[C@H](C(=O)N[C@@H](CCCCN)C(=O)N[C@@H](CCCCN)C(=O)N[C@@H](Cc1ccc(O)cc1)C(=O)N[C@@H](CC(C)C)C(=O)N[C@@H](C)C(=O)N[C@@H](C)C(=O)N[C@H](C(=O)N[C@@H](CC(C)C)C(=O)NCC(=O)N[C@@H](CCCCN)C(=O)N[C@@H](CCCN=C(N)N)C(=O)N[C@@H](Cc1ccc(O)cc1)C(=O)N[C@@H](CCCCN)C(=O)N[C@@H](CCC(N)=O)C(=O)N[C@@H](CCCN=C(N)N)C(=O)N[C@H](C(=O)N[C@@H](CCCCN)C(=O)N[C@@H](CC(N)=O)C(=O)N[C@@H](CCCCN)C(N)=O)C(C)C)C(C)C)C(C)C [compound 10, PACAP(9–38)] (H-SYSRYRKQMAVKKYLAAVLGKRYKQRVKNK-NH2) | do not exert a very significant haemolytic activity | – | – | – | – | – | – | – | – | – | – | – | – | – | – | – | IC50 (human VPAC1 receptor): > 1 µM; IC50 (human VPAC1 receptor; VPAC1 pIC50, CHO cells expressing human VPAC1, 0.05 nM 125I-Ac-PACAP27, 2h, room temperature): 5.13 µM; IC50 (human VPAC2 receptor; 95% confidence limits in parentheses): > 1 µM; IC50 (human VPAC2 receptor; read-out: VPAC2 pIC50 (converted)): 1.7 µM; IC50 (human PAC1 receptor): > 1 µM; IC50 (human PAC1 receptor; PAC1 pIC50, CHO cells expressing human PAC1, 0.05 nM 125I-Ac-PACAP27, 2h, room temperature): 1.35 µM
[Arg^17]PACAP(11–38) (SRYRKQRAVKKYLAAVLGKRYKQRVKNK; ends and bridges not checked; UniProt P18509 142-169, looked up, variant M17R) | – | – | – | – | – | – | – | – | – | – | – | – | – | – | – | – | Cytotoxic effect (CHO-K1): no cytotoxic effect

From publication PMC6248945, “Antibacterial properties of the pituitary adenylate cyclase-activating polypeptide: A new human antimicrobial peptide” (PLoS ONE, 2018)
